Columns and labels:
[1] = target: T1, hAChE (human acetylcholinesterase) (Homo sapiens, UniProt P22303); assay: enzyme inhibition assay; format: biochemical; conditions: footnote d not shown: inhibition or residual activity and concentration unknown
[2] = target: T1, hAChE (human acetylcholinesterase); assay: enzyme inhibition assay; format: biochemical
physchem = conditions: pbs
[3] = target: T1, hAChE (human acetylcholinesterase); assay: biochemical

T1 sequence (P22303 32-614): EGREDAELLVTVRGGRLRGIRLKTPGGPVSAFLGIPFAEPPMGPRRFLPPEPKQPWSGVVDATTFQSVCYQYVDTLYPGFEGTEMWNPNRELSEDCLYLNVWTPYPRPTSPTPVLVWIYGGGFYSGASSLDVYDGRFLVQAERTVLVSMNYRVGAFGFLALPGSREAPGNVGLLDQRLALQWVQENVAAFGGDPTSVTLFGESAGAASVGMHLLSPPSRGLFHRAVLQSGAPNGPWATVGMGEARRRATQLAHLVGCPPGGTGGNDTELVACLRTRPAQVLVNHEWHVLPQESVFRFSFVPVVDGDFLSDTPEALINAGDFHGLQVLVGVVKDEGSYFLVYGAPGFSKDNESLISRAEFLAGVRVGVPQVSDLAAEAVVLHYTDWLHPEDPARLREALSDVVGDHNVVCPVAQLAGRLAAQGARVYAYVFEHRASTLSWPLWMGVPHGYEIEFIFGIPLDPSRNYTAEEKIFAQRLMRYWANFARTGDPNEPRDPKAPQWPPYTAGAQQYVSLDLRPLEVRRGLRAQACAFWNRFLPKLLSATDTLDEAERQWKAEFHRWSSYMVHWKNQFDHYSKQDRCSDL

Row | Compound | IC50 [2] [µM] | also measured
1 | CN(CCC1CCCCCC1)Cc1c[nH]c2c(N(C)C(=O)OCC(F)(F)F)cccc12 [compound 7] | – | % (footnote d) [1]: 51.6 ± 0.8%
2 | CN(CCC1CCCCCC1)Cc1c[nH]c2c(N(C)C(=O)Oc3c(F)c(F)c(F)c(F)c3F)cccc12 [compound 11] | 0.788 ± 0.176 | –
3 | CN(CCC1CCCCCC1)Cc1c[nH]c2c(N(C)C(=O)Sc3nnnn3C)cccc12 [compound 23] | 16.9 | half-life (physchem): ~38 days
4 | CN(CCC1CCCCCC1)Cc1c[nH]c2c(N(C)C(=O)On3ccnc3)cccc12 [compound 14] | 24.2 | half-life (physchem): ~18 days
5 | CN(CCC1CCCCCC1)Cc1c[nH]c2c(NC(=O)n3ccnc3)cccc12 [compound 33, N-(3-(((2-Cycloheptylethyl)(methyl)amino)methyl)-1H-indol-7-yl)-1H-imidazole-1-carboxamide] | – | IC50 [3]: 17.3 µM
6 | CN(CCC1CCCCCC1)Cc1c[nH]c2c([Te]C(=O)N(C)C)cccc12 [compound 4] | 13.2 | –
7 | CN(CCC1CCCCCC1)Cc1c[nH]c2c(N(C)C(=O)n3ccnc3)cccc12 [compound 26] | 47.3 | half-life (physchem): ~14 days
8 | CN(CCC1CCCCCC1)Cc1c[nH]c2c(N(C)C(=O)Sc3nncn3C)cccc12 [compound 22] | 21.8 | half-life (physchem): ~25 days
9 | CN(CCC1CCCCCC1)Cc1c[nH]c2c(SC(=O)N(C)C)cccc12 [compound 2] | 11.1 | –
10 | CN(CCC1CCCCCC1)Cc1c[nH]c2c(N(C)C(=O)F)cccc12 [compound 6] | 0.177 ± 0.006 | half-life (physchem): ~4 days
11 | CC[Se]C(=O)N(C)c1cccc2c(CN(C)CCC3CCCCCC3)c[nH]c12 [compound 24] | 30.2 | –
12 | CN(CCC1CCCCCC1)Cc1c[nH]c2c([Se]C(=O)N(C)C)cccc12 [compound 3] | 9.75 | –
13 | CN(CCC1CCCCCC1)Cc1c[nH]c2c(N(C)C(=O)[Se]c3ccccc3)cccc12 [compound 25] | – | % (footnote d) [1]: 53.6 ± 2.7%
14 | CN(CCC1CCCCCC1)Cc1c[nH]c2c(N(C)C(=O)OC(C(F)(F)F)(C(F)(F)F)C(F)(F)F)cccc12 [compound 9] | 6.7 | –
15 | CN(CCC1CCCCCC1)Cc1c[nH]c2c(N(C)C(=O)n3cnc([N+](=O)[O-])c3)cccc12 [compound 27] | 15.9 | –
16 | CN(CCC1CCCCCC1)Cc1c[nH]c2c(N(C)C(=O)OC(C(F)(F)F)C(F)(F)F)cccc12 [compound 8] | 25.8 | –
17 | CN(CCC1CCCCCC1)Cc1c[nH]c2c(N(C)C(=O)Oc3ccccc3)cccc12 [compound 10] | 21.2 | –

— article doi:10.1101/2025.08.20.671340v1 (biorxiv, 2025)
